In publication PMC4861708 (Frontiers in Cell and Developmental Biology, 2016):
Where a SMILES comes first, the peptide text is derived from it. [ ]: non-standard residue; d: D form. The star is where a group is joined. Orn(α-tetramethylguanidino) = CN(C)C(=N[C@@H](CCCN)C(=O)*)N(C)C; Orn = NCCC[C@H](N)C(=O)O

What was measured:
in vitro [1] = type: cell-based, human; conditions: human
Method: (§1) Human embryonic kidney (HEK293) and HeLa cells were cultured in Dulbecco's modified Eagle's/Ham's F-12 medium [DMEM/F-12 (1:1)] supplemented with FBS (10% v/v), penicillin, and streptomycin (1000 units each). Primary rat cardiomyocytes (Innoprot, Elexalde Derio, Spain) were grown in medium supplemented with FBS (20% v/v), horse serum (5% v/v), L-glutamine (2 mmol/L), sodium pyruvate (2 mmol/L), MEM non-essential amino acids (Gibco, 0.1 mmol/L), penicillin, and streptomycin (1000 units each). Surfaces for cardiomyocyte growth were coated with attachment factor first. Cells (20,000/well) were seeded into a 96-well plate (PS, sterile, flat bottom), incubated for 24 h (37°C, 5% CO2), and washed twice with PBS (100 μl/well) prior to adding colorless medium (88 μL) and peptide solution (12 μL; 5, 2.5, 1.25, […], and 0.625 g/L in PBS). Positive controls were triton X-100 (1%, v/v) and melittin (60 mg/L) as lytic peptide, whereas PBS (12%, v/v) served as negative control. After an incubation period of 24 h, supernatant (25 μL) was mixed with lactate dehydrogenase (LDH) substrate (175 μL; 0.57 mmol/L sodium pyruvate, 0.24 mmol/L NADH disodium salt, 32 mmol/L potassium dihydrogen phosphate, 66 mmol/L dipotassium phosphate) in 96-well plates (PS, sterile, flat bottom). Absorbance was recorded at 340 nm every 3 min for 30 min on the Paradigm microplate reader. Due to the total release of LDH upon triton X-100 treatment, the control contained high LDH concentrations resulting in a fast substrate turnover that was only linear for the first 6 min.
(§2) The MTT cell viability assay relied on the same cell culture. Remaining medium was replaced by a mixture of fresh colorless medium (100 μL) and MTT (10 μL; 5 g/L in PBS) and incubated for 4 h (37°C, 5% CO2). A solution of sodium dodecyl sulfate (100 μL; 10%, w/v) dissolved in hydrochloric acid (10 mmol/L) was added, incubated (16 h), and the absorbance recorded at 590 nm relative to the reference at 650 nm (Paradigm microplate reader). The relative cell viability was calculated by [(ODPeptide − ODTriton)/(ODPBS − ODTriton)] × 100% and half-maximal inhibitory concentrations (IC50) with an Excel-template from cell biology protocols (www.sciencegateway.org/ protocols/cellbio/drug/hcic50.htm). For statistical analysis an unpaired t-test was applied using GraphPad Prism 5.0.

HEK293 cells = assay: in vitro; type: cell-based, human; conditions: 24 h
Method: as §1, §2

E. coli DSM 1103 = assay: Transmission electron microscopy, morphological changes; type: cell-based, Escherichia coli; conditions: 1 h
Method: Peptide-bacteria mixtures were fixed (2% glutaraldehyde, 5 mmol/L CaCl2, 10 mmol/L MgCl2 in 0.1 mol/L sodium cacodylate buffer, pH 7.4) overnight at 4°C. […] Samples were rinsed with distilled water (5 × 10 min), incubated with aqueous uranylacetate (0.5% w/v) for 1 h at 4°C, washed with distilled water (3 × 10 min), and embedded in Epon. The hardened blocks were sectioned (50 nm) on a UCT ultramicrotome (Leica, Vienna, Austria), stained with uranyl acetate and lead citrate on an AC20 system (Leica), and visualized at a Tecnai 12 electron microscope (FEI, Eindhoven, The Netherlands) at 80 kV. Morphological effects were quantified on average for 25 cells per condition.

HeLa cells = assay: Flow cytometry, endocytosis inhibition with dynasore; type: cell-based; conditions: dynasore 0.2 mmol/L 45 min, peptide 40 μmol/L 30 min
Method: Fresh colorless medium (150 μL) supplemented with either dynasore (0.2 mmol/L) dissolved in DMSO (final concentration of 0.2% v/v) or DMSO (0.2% v/v) as vehicle control was added. After 45 min (37°C) the supernatant was replaced by fresh medium supplemented with either dynasore or DMSO at the same concentrations (144 μL), Cf-labeled peptide added (6 μL, 1 mmol/L in water), and incubated (30 min, 37°C). Cells were fixed and stained with Hoechst 33342 as described above.
HeLa cells (50,000 for endocytosis inhibition and 70,000 for uptake kinetics) suspended in DMEM/F-12 medium (300 μL; see above) were seeded into 48-well plates (PS, sterile, flat bottom) and incubated (23 ± 1 h) using the conditions described above. Cells were washed twice with PBS (300 μL/well) and fresh medium was added (144 μL).
Cell cultures were prepared and incubated in the presence of dynasore, as described for microscopy. Cells were washed, treated with trypsin, and fixed as described above, dissolved in FACS buffer, and analyzed the same day.

in vitro [2] = conditions: mouse, mouse serum
Method: Peptide solutions (1 g/L) were added to mouse serum to obtain final concentrations of 70 mg/L peptide and incubated under constant shaking at 37°C. After 0, 1, 2, 3, and 6 h aliquots (95 μL) were precipitated with aqueous TCA (25 μL, 15% w/v), incubated for 10 min on ice, and centrifuged (5 min, 12,000 × g, Eppendorf mini spin centrifuge). An aliquot of the supernatant (95 μL) was neutralized with sodium hydroxide (8 μL, 1 mol/L) and diluted with aqueous acetonitrile solution (3% acetonitrile, 0.1% TFA; 200 μL). Peptides were quantified by the peak areas obtained by analytical RP-HPLC on a Jupiter C18-column (ID: 2 mm) using a linear aqueous acetonitrile gradient with 0.1% (v/v) TFA (absorbance recorded at 214 nm). Peak areas of all time points were normalized to the initial peak area obtained after “0 min incubation” (= 100%). Experiments were carried out as triplicates in parallel and half-life times were calculated using GraphPad Prism 5.0.

Q: Which viability at 24 h, 0.6 g/L (in vitro [1]) does the source give for `CC[C@H](C)[C@H](NC(=O)[C@H](CCCN)N=C(N(C)C)N(C)C)C(=O)N[C@@H](CCCN)C(=O)N[C@H](C(=O)N[C@@H](CCCN)C(=O)N[C@@H](CCCNC(=N)N)C(=O)N1CCC[C@H]1C(=O)N[C@H](C(=O)N[C@@H](Cc1ccc(O)cc1)C(=O)N[C@@H](CCCN)C(=O)N1CCC[C@H]1C(=O)N[C@@H](CCCNC(=N)N)C(=O)N1CCC[C@H]1C(=O)N[C@@H](CCCNC(=N)N)C(=O)N1CCC[C@H]1C(=O)N1CCC[C@H]1C(=O)N[C@@H](Cc1c[nH]cn1)C(=O)N1CCC[C@H]1C(=O)N[C@@H](CCCNC(=N)N)C(=O)N[C@@H](CC(C)C)C(=O)O)C(C)C)[C@@H](C)CC` [Api795, gu-O(IO)2RPVYOPRPRPPHPRL-OH] ({Orn(α-tetramethylguanidino)}-I[Orn]I[Orn]RPVY[Orn]PRPRPPHPRL-OH) here?
A: ~60%

Q: What about the “IC50 on cell viability” value (HEK293 cells) of the same compound?
A: >600 µg/mL

Q: And the “Cell: r, ruptured” value (E. coli DSM 1103; 8 µg/mL)?
A: 0%

Q: And the DNA/Ribosomes relocalized (E. coli DSM 1103; 8 µg/mL)?
A: 0%

Q: And the “Fragments: +++, long and thick” value (E. coli DSM 1103; 8 µg/mL)?
A: 0%

Q: What about the “Fragments: ++, long and thin” value (E. coli DSM 1103; 8 µg/mL) of the same compound?
A: 23%

Q: What about the “Fragments: +, small and thin” value (E. coli DSM 1103; 8 µg/mL) of the same compound?
A: 63%

Q: What about the “Fragments: -, no” value (E. coli DSM 1103; 8 µg/mL) of the same compound?
A: 13%

Q: What about the “Fragments: LV, large vesicles” value (E. coli DSM 1103; 8 µg/mL) of the same compound?
A: 0%

Q: What about the “Membrane: i, intact” value (E. coli DSM 1103; 8 µg/mL) of the same compound?
A: 3%

Q: What about the “Membrane: w, wrinkled” value (E. coli DSM 1103; 8 µg/mL) of the same compound?
A: 97%

Q: And the Vesicle release weak (E. coli DSM 1103; 8 µg/mL)?
A: 30%

Q: And the “Cell: r, ruptured” value (E. coli DSM 1103; 32 µg/mL)?
A: 0%

Q: And the DNA/Ribosomes relocalized (E. coli DSM 1103; 32 µg/mL)?
A: 0%

Q: And the “Fragments: +++, long and thick” value (E. coli DSM 1103; 32 µg/mL)?
A: 0%

Q: What about the “Fragments: ++, long and thin” value (E. coli DSM 1103; 32 µg/mL) of the same compound?
A: 10%

Q: What about the “Fragments: +, small and thin” value (E. coli DSM 1103; 32 µg/mL) of the same compound?
A: 57%

Q: And the “Fragments: -, no” value (E. coli DSM 1103; 32 µg/mL)?
A: 33%

Q: What about the “Fragments: LV, large vesicles” value (E. coli DSM 1103; 32 µg/mL) of the same compound?
A: 0%

Q: And the “Membrane: i, intact” value (E. coli DSM 1103; 32 µg/mL)?
A: 7%

Q: And the “Membrane: w, wrinkled” value (E. coli DSM 1103; 32 µg/mL)?
A: 93%

Q: And the Vesicle release weak (E. coli DSM 1103; 32 µg/mL)?
A: 43%

Q: And the “Cell: r, ruptured” value (E. coli DSM 1103; 128 µg/mL)?
A: 0%

Q: What about the DNA/Ribosomes relocalized (E. coli DSM 1103; 128 µg/mL) of the same compound?
A: 0%

Q: And the “Fragments: +++, long and thick” value (E. coli DSM 1103; 128 µg/mL)?
A: 0%

Q: And the “Fragments: ++, long and thin” value (E. coli DSM 1103; 128 µg/mL)?
A: 30%

Q: And the “Fragments: +, small and thin” value (E. coli DSM 1103; 128 µg/mL)?
A: 53%

Q: What about the “Fragments: -, no” value (E. coli DSM 1103; 128 µg/mL) of the same compound?
A: 17%

Q: And the “Fragments: LV, large vesicles” value (E. coli DSM 1103; 128 µg/mL)?
A: 0%

Q: What about the “Membrane: i, intact” value (E. coli DSM 1103; 128 µg/mL) of the same compound?
A: 17%

Q: What about the “Membrane: w, wrinkled” value (E. coli DSM 1103; 128 µg/mL) of the same compound?
A: 83%

Q: What about the Vesicle release weak (E. coli DSM 1103; 128 µg/mL) of the same compound?
A: 47%

Q: And the “Cell: r, ruptured” value (E. coli DSM 1103; 512 µg/mL)?
A: 0%

Q: And the DNA/Ribosomes relocalized (E. coli DSM 1103; 512 µg/mL)?
A: 30%

Q: And the “Fragments: +++, long and thick” value (E. coli DSM 1103; 512 µg/mL)?
A: 0%

Q: What about the “Fragments: ++, long and thin” value (E. coli DSM 1103; 512 µg/mL) of the same compound?
A: 37%

Q: And the “Fragments: +, small and thin” value (E. coli DSM 1103; 512 µg/mL)?
A: 63%

Q: What about the “Fragments: -, no” value (E. coli DSM 1103; 512 µg/mL) of the same compound?
A: 0%

Q: And the “Fragments: LV, large vesicles” value (E. coli DSM 1103; 512 µg/mL)?
A: 0%

Q: And the “Membrane: i, intact” value (E. coli DSM 1103; 512 µg/mL)?
A: 33%

Q: What about the “Membrane: w, wrinkled” value (E. coli DSM 1103; 512 µg/mL) of the same compound?
A: 67%

Q: What about the Vesicle release weak (E. coli DSM 1103; 512 µg/mL) of the same compound?
A: 60%

Q: And the “Drop of GeoMean fluorescence (uptake) in the presence of dynasore vs vehicle control” value (HeLa cells)?
A: 80%

Q: And the half-life at 70 mg/L (in vitro [2]; Half-life time against serum proteases, serum (abstract))?
A: > 5 h

Q: What about the half-life at 70 mg/L (in vitro [2]; Half-life time mouse serum, 37°C) of the same compound?
A: 5.9 h
